This note sets out measurements from patent publication US8680132B2, “Spiro-oxindole MDM2 antagonists” (priority 2010, dated 2014).

Values joined by “and” are separate entries in the source; they are usually repeats but may differ in a detail not shown here. Equal values may be shown once. Where a name gives a salt, the structure may show the parent alone. Read-outs that look alike come from different tables or passages of the source. Bounds are passed on as bounds.

The target in experiment [1] is recombinant human His-tagged MDM2 protein (residues 1-118) (Homo sapiens (Human), UniProt Q00987). Briefly: Fluorescence-polarization MDM2 binding assay (Example 2). The note with it: Table 2A; no unit in the cell (μM unless otherwise indicated).
In another experiment the test system is SJSA-1 (p53 wild-type). As to the kind of experiment: Cell growth assay (WST-8). The class given is cell-based.
For the next experiment, the system named is LNCAP (p53 wild-type). Briefly: Cell growth assay (WST-8). The class given is cell-based, human. (Tetrazolium dyes change colour on reduction, which living cells bring about.)
For the next experiment, the system named is PC-3 (deleted p53). Briefly: Cell growth assay (WST-8). Format: cell-based. As to conditions: read-out: IC50 PC-3 (deleted p53).
A further experiment concerns HCT-116 (p53 wild-type). Briefly: Cell growth assay (WST-8). Format: cell-based, human.
The subject of the next experiment is HCT-116 (p53—/—). As to the kind of experiment: Cell growth assay (WST-8). The class given is cell-based.
The subject of experiment [2] is prostate cancer cell line 22Rv1. Briefly: Growth inhibition assay (Celltiter-Glo), 22Rv1. The note with it: Homo sapiens, 22Rv1, 96 h, read-out: IC50 growth inhibition. Format: cell-based. A general note: Cellular ATP, detected with luciferase, serves as a proxy for viable cell number.
For a further experiment, the system named is RS4; 11 (p53 wt). As to the kind of experiment: cells. The note with it: Homo sapiens, RS4-11, 96 h, read-out: RS4, 11 (p53 wt) IC50 (μM).
The mark [3] stands for this setting: Homo sapiens, SJSA-1; read-out: IC50 SJSA-1 (p53 wild-type).
The mark [4] stands for this setting: Homo sapiens, LNCaP; read-out: IC50 LNCAP (p53 wild-type).
[5] abbreviates: Homo sapiens, SJSA-1, read-out: IC50 SJSA-1 (p53 wild-type).
The mark [6] stands for this setting: Homo sapiens, HCT-116, read-out: IC50 HCT-116 (p53 wild-type).
Where [7] appears, read: Homo sapiens, LNCaP, read-out: IC50 LNCAP (p53 wild-type).
[8] abbreviates: Homo sapiens, HCT-116, read-out: IC50 HCT-116 (p53—/—).
[9] abbreviates: Homo sapiens, SJSA-1, 96 h, read-out: IC50 SJSA-1 (p53 wild-type).
Where [10] appears, read: Homo sapiens, HCT-116, 96 h, read-out: IC50 HCT-116 (p53 wild-type).
Where [11] appears, read: Homo sapiens, LNCaP, 96 h, read-out: IC50 LNCAP (p53 wild-type).
The mark [12] stands for this setting: Homo sapiens, HCT-116, 96 h, read-out: IC50 HCT-116 (p53—/—).

Chain of recombinant human His-tagged MDM2 protein (residues 1-118) (Q00987 1-118): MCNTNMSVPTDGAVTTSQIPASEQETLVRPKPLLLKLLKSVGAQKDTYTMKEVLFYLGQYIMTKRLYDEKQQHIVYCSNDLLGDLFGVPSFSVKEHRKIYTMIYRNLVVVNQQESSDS

As to `CC(C)(C)C[C@@H]1N[C@@H](C(=O)N[C@H]2C[C@@](C)(O)C2)[C@H](c2cccc(Cl)c2F)[C@]12C(=O)Nc1c2ccc(Cl)c1F`, the IC50 in experiment [1] is below 0.1 µM; with SJSA-1 (p53 wild-type) (setting [3]) it was 200 nM; in the experiment with LNCAP (p53 wild-type) (setting [4]) it was 300 nM; with PC-3 (deleted p53), 10.1 µM.

`CC(C)(C)C[C@@H]1N[C@@H](C(=O)NC2CCC(C)(O)CC2)[C@H](c2cccc(Cl)c2F)[C@]12C(=O)Nc1cc(Cl)ccc12` (stereo partly shown): the IC50 in the experiment on SJSA-1 (p53 wild-type) (setting [5]) was determined as 100 nM; in the experiment with HCT-116 (p53 wild-type) (setting [6]) it was 100 nM; with LNCAP (p53 wild-type) (setting [7]) it was 200 nM; in the experiment on HCT-116 (p53—/—) (setting [8]) it was 10.6 µM; in the experiment with PC-3 (deleted p53), 11.1 µM.

As to `O=C(NC1CCC(O)CC1)[C@@H]1N[C@@H](c2ccccc2)[C@@]2(C(=O)Nc3cc(Cl)ccc32)[C@H]1Cc1ccccc1` (single isomer, unassigned) [CB083-Isomer B], the IC50 in experiment [1] was above 5 µM.

Regarding `CC(C)(C)C[C@@H]1N[C@@H](C(=O)NC2CCC(O)CC2)[C@H](Cc2ccccc2)[C@]12C(=O)Nc1cc(Cl)ccc12` (single isomer, unassigned) [CB084-Isomer B], the IC50 in experiment [1] is above 5 µM.

For the compound `O=C(NC1CCC(O)CC1)[C@@H]1N[C@@H](c2ccccc2)[C@@]2(C(=O)Nc3cc(Cl)ccc32)[C@H]1c1cccc(Cl)c1F` (single isomer, unassigned) [CB087-Isomer B], in experiment [1], the IC50 was below 0.5 µM.

For `CC(C)(C)C[C@H]1N[C@@H](C(=O)N[C@H]2C[C@@](C)(O)C2)[C@H](c2cccc(Cl)c2)[C@@]12C(=O)Nc1cc(F)c(F)cc12` [C035], the IC50 is below 3 µM in experiment [1]; below 5000 nM in the experiment on SJSA-1 (p53 wild-type) (setting [3]); below 5000 nM in the experiment with HCT-116 (p53 wild-type) (Homo sapiens, HCT-116; read-out: IC50 HCT-116 (p53 wild-type)); below 5000 nM in the experiment with LNCAP (p53 wild-type) (setting [4]); above 10 µM in the experiment on HCT-116 (p53—/—) (Homo sapiens, HCT-116; read-out: IC50 HCT-116 (p53—/—)); above 10 µM in the experiment with PC-3 (deleted p53).

Consider `CC(C)(C)C[C@@H]1N[C@@H](C(=O)N[C@H]2C[C@@](C)(O)C2)[C@H](c2cc(Cl)ccc2F)[C@]12C(=O)Nc1cc(Cl)ccc12` [C11701], for which the IC50 worked out at 1400 nM in the experiment with HCT-116 (p53 wild-type) (setting [6]), 1500 nM in the experiment on LNCAP (p53 wild-type) (setting [7]), 21.8 µM with HCT-116 (p53—/—) (setting [8]) and 19.6 µM in the experiment with PC-3 (deleted p53).

With `CCN1[C@@H](CC(C)(C)C)[C@@]2(C(=O)Nc3cc(Cl)ccc32)[C@@H](c2cccc(Cl)c2F)[C@@H]1C(=O)N[C@H]1C[C@@](C)(O)C1` [C29701], in experiment [1], the IC50 is below 0.1 µM.

With `CN1[C@@H](CC(C)(C)C)[C@@]2(C(=O)Nc3cc(Cl)ccc32)[C@@H](c2cccc(Cl)c2F)[C@@H]1C(=O)N[C@H]1C[C@@](C)(O)C1` [C30201], the IC50 in experiment [1] is below 0.1 µM.

On to `CC(C)(C)C[C@H]1N[C@@H](C(=O)N[C@H]2C[C@@](C)(O)C2)[C@H](c2cccc(Cl)c2F)[C@@]12C(=O)Nc1cc(Cl)ccc12` [MI-519-64], for which the IC50 was 270 nM in the experiment with SJSA-1 (p53 wild-type) (setting [9]); 180 nM in the experiment on HCT-116 (p53 wild-type) (setting [10]); 500 nM in the experiment on LNCAP (p53 wild-type) (setting [11]); 13.7 µM in the experiment with HCT-116 (p53—/—) (setting [12]); 6.1 µM with PC-3 (deleted p53) (96 h).

In the case of `CC(C)(C)C[C@H]1N[C@@H](C(=O)N[C@H]2C[C@](C)(O)C2)[C@H](c2cccc(Cl)c2F)[C@@]12C(=O)Nc1cc(Cl)ccc12` [MI-519-65], the IC50 with SJSA-1 (p53 wild-type) (setting [5]), in the experiment with HCT-116 (p53 wild-type) (setting [6]) and with LNCAP (p53 wild-type) (setting [7]) was below 3000 nM each time.

As to `CC(C)(C)C[C@@H]1N[C@@H](C(=O)N[C@H]2C[C@@](C)(O)C2)[C@H](c2cccc(Cl)c2F)[C@]12C(=O)Nc1cc(Cl)ccc12` [MI-519-6401], the IC50 with SJSA-1 (p53 wild-type) (setting [9]) is 400 nM; with HCT-116 (p53 wild-type) (setting [10]) it was 102 nM; with LNCAP (p53 wild-type) (setting [11]), 330 nM; in the experiment on HCT-116 (p53—/—) (setting [12]) it was 12.2 µM; with PC-3 (deleted p53) (96 h), 10.5 µM; in experiment [2], 100 to 500 nM. The IC50 in the experiment with RS4; 11 (p53 wt) worked out at 0.13 ± 0.02 µM.

Consider `CC(C)(C)C[C@H]1N[C@@H](C(=O)NC2CCC(O)CC2)[C@H](c2cccc(Cl)c2F)[C@@]12C(=O)Nc1cc(Cl)ccc12` (stereo partly shown) [MI-773], for which the IC50 in the experiment with SJSA-1 (p53 wild-type) (setting [5]) amounted to 61 nM; in the experiment with HCT-116 (p53 wild-type) (setting [6]) it was 58 nM; in the experiment on LNCAP (p53 wild-type) (setting [7]), 85 nM; in the experiment on PC-3 (deleted p53) it was 14.7 µM; in the experiment on RS4; 11 (p53 wt) (Four day treatment), 0.13 µM.

For `CC(C)(C)C[C@@H]1N[C@@H](C(=O)NC2CCC(O)CC2)[C@H](c2cccc(Cl)c2F)[C@]12C(=O)Nc1cc(Cl)ccc12` (stereo partly shown) [MI-77301 (TFA salt)], the IC50 with SJSA-1 (p53 wild-type) (read-out: IC50 SJSA-1 (p53 wild-type); Four day treatment) was 83 nM and 75 nM; in the experiment with HCT-116 (p53 wild-type) (read-out: IC50 HCT-116 (p53 wild-type); Four day treatment), 48 ± 14 nM; in the experiment with LNCAP (p53 wild-type) (read-out: IC50 LNCAP (p53 wild-type); Four day treatment) it was 86 ± 16 nM; with PC-3 (deleted p53) (Four day treatment), 13 ± 3 µM; in the experiment on RS4; 11 (p53 wt) (Four day treatment), 0.059 ± 0.025 µM.
